The target of one series is HIV-1 Nef (Human immunodeficiency virus type 1 group M subtype B, UniProt P03406). The experiment in a line: SPR direct binding to immobilized recombinant Nef.
For a further series, the system named is HIV-1NL4-3. The experiment in a line: Nef-dependent HIV-1 replication in U87MG/CD4/CXCR4 cells, p24 Gag ELISA. Type of series: cell-based. Conditions: 3 μM, 4 days. For orientation: An ELISA detects its analyte on a solid surface through an enzyme-linked reagent.
Series [1] can be described thus: Pharmacokinetics and oral bioavailability in C3H mice, plasma levels by LC-MS. Type of series: in vivo. The following applies: for bioavailability: po, 10 mg/kg; for Plasma drug concentrations at higher PO dose: mice, PO 100 mg/kg in suspension, data not shown.
[2] abbreviates: C3H, mouse, plasma, iv, 2 mg/kg.

Consider five compounds from publication PMC4756635 (Bioorganic & medicinal chemistry letters, 2016).

The structures appear in SMILES notation. “Also recorded” adds a separate entry of the source.

For the compound `O=[N+]([O-])c1ccc(-c2n[nH]c(O)c2CCc2cccc(Cl)c2)cc1` [Compound 3], the “Nef binding by SPR (in words)” value at HIV-1 Nef is reported as “dramatic loss of Nef binding; also recorded: fail to bind to Nef”. Moreover, in the series on HIV-1NL4-3, the “Effect on Nef-dependent enhancement of HIV-1 replication” value (shortened to “Effect on Nef-dependent enhancement”) is reported as “no activity”.
For `O=[N+]([O-])c1ccc(-c2n[nH]c(O)c2Cc2cccc(Cl)c2)cc1` [Compound 5] the same measures were “dramatic loss of Nef binding; also recorded: fail to bind to Nef” and “no activity”.
Take `NC(=S)n1nc(-c2ccc([N+](=O)[O-])cc2)c(CCc2cccc(Cl)c2)c1O` [Compound 2]: the “Reduction of binding affinity for Nef relative to B9 parent compound” value at HIV-1 Nef amounted to 2 fold. For the same compound, the “Effect on Nef-dependent enhancement” value in the series with HIV-1NL4-3 is given as “suppressed Nef-dependent enhancement of HIV-1 replication to the same extent as B9”. Moreover, in series [1] (setting [2]), the AUC(0-inf) (as a rule, the area under the concentration-time curve extrapolated to infinity) stood at 2470 ng·h/mL; the Cmax (in general, the highest concentration seen after dosing) worked out at 11200 ng/mL; the Vd amounted to 0.91 L/kg; the clearance was found to be 15.5 mL/min/kg. Moreover, the half-life (commonly the time needed for the level to fall by half in the phase considered) in series [1] (setting [2]) is 2.7 h. Also, in series [1] (C3H, mouse, plasma), the bioavailability (as a rule, dose-corrected exposure relative to a reference, in per cent) was 53 to 85%. The “Plasma drug concentrations at higher PO dose” value in series [1] is “proportionally higher plasma drug concentrations”.
With `NC(=S)n1nc(-c2ccc([N+](=O)[O-])cc2)c(Cc2cccc(Cl)c2)c1O` [Compound 4], in the series on HIV-1NL4-3, the “Effect on Nef-dependent enhancement” value is given as “suppressed Nef-dependent enhancement of HIV-1 replication to the same extent as B9”. Also, in series [1] (setting [2]), the AUC(0-inf) was 3890 ng·h/mL; the AUC(0-t) (commonly exposure summed from dosing to a finite time, without extrapolation to infinity) stood at 3770 ng·h/mL; the highest concentration (Cmax) was found to be 3880 ng/mL; the Vd stood at 0.95 L/kg. Moreover, the clearance in series [1] (setting [2]) was 11.2 mL/min/kg. In series [1] (C3H, mouse, plasma), this compound yielded a bioavailability of 57 to 100%. Further, the “Plasma drug concentrations at higher PO dose” value in series [1] is “proportionally higher plasma drug concentrations”.
In turn, `NC(=S)n1nc(-c2ccc([N+](=O)[O-])cc2)c(/N=N/c2cccc(Cl)c2)c1O` [Compound 1] returned a half-life in series [1] (setting [2]) greater than 2 h.
